The record followed here is patent US20220177839A1, “COMPOSITION, CULTURE MEDIUM AND METHOD FOR INDUCING AND/OR AMPLIFYING TSCM IN VITRO” (SHANGHAI SINOBAY BIOTECHNOLOGY CO., LTD., priority 2019, published 2022).

For this assay, the system named is human primary CD8^+T cells (CD3^+CD8^+). Kind of assay: In-vitro induction and amplification of CD8+TSCM in culture media A to E (cell count, flow cytometry CD45RA, CCR7, CD95). The following applies: GSK-3β inhibitor. In kind it is cell-based. On the procedure: 1) Pre-prepared human primary T cells (Shanghai Sinobay Bio-Tech Co., Ltd., hereinafter referred to as “Sinobay”) were selected by a magnetic bead negative selection method to obtain human primary CD8^+T cells (CD3^+CD8^+), and the human primary CD8^+T cells (CD3^+CD8^+) were placed in a 96-well U-bottom culture plate, with 5×10^4 CD8^+T cells in each well;
2) subsequently, culture media A to E and magnetic beads coupled to an anti-CD3 antibody and an anti-CD28 antibody were added into the culture plates containing the CD8^+T cells, wherein a ratio of the number of the magnetic beads to the number of the cells was 1:1; and fresh culture media A to E were supplemented at Day 4, Day 7, Day 10 and Day 13 of cell culture; and
3) the cells were counted at Day 0, Day 7 and Day 14 of cell culture respectively, flow cytometry antibodies (CD45RA, CCR7 and CD95) for detecting TSCM were incubated, and the TSCM was detected by using a flow cytometry.

Turning to `Nc1cccc(-c2cc3c(Oc4cccc(O)c4)ncnc3[nH]2)c1` [TWS119], the “concentration range that effectively induces the formation of TSCM” value lay in the range of 1 to 50 µM.
